Columns and labels:
[1] = system: soft rot of Chinese cabbage; experiment: Test for controlling soft rot of Chinese cabbage, Example 1 / Comparative Example 1 (field, cultivar Muso); format: in vivo; details: 1/1000 dilution, 300 L/10a sprayed three times on stems and leaves, 54 days after start
Procedure: 200 g/l Azoxystrobin (Amistar 20 FLOWABLE [trade name], manufactured by Syngenta Japan K.K.) was adjusted to 250 g ai/10a (0.25 g/m^2, 1250 ml Product/10a) as the amount of the active ingredient and to 150 L/10a as the volume of diluent water.
100 g/l Cyazofamid (RANMAN FLOWABLE [trade name], manufactured by Ishihara Sangyo Kaisha, Ltd.) was adjusted to 250 g ai/10a (0.25 g/m^2, 2500 ml Product/10a) as the amount of the active ingredient and to 150 L/10a as the volume of diluent water.
177 g/l Amisulbrom (LEIMAY FLOWABLE [trade name], manufactured by Nissan Chemical Industries, Ltd.) was adjusted individually to 250 g ai/10a (0.25 g/m^2, 1412 ml Product/10a) as the amount of the active ingredient and to 150 L/10a as the volume of diluent water.
After spreading an agricultural mulch-sheet and opening planting holes (diameter of about 9 cm) for permanent planting through the mulch-sheet, the spray solutions prepared as described above were sprayed onto the planting holes such that the amount of treated active ingredient of each spray solution was 0.25 g/m^2 (150 L per 10a), followed by air-drying; subsequently, seedlings of Chinese cabbage (cultivar: Muso) grown for 4 weeks in cell mold trays (128 holes/nursery box) were planted such that 30 seedlings were planted in each test lot having an area of 6 m^2 with two replications.
Preparation was performed by diluting streptomycin (Mycin 20 wettable powder solution [under the trade name] manufactured by Hokko Chemical Industry Co., Ltd.) with water to 1/1000.
In a field spread with the agricultural mulch-sheet, Chinese cabbage seedlings (cultivar: Muso) grown by the same method as in Example 1 were planted by the same method as in Example 1, for spraying the spray solution of streptomycin prepared above in (1) (at each spray volume of 300 L/10a) three times (13 days, 20 days and 27 days after the planting of the seedlings) on the stems and leaves.
54 days after the start of the tests, all the plants in each lot were examined about the severity level of the disease; according to the following equations, the ratio of the plants with the onset of the disease, the frequency of the disease, and the disease control value were calculated to determine and rank the effects at A to D levels. Because soft rot is a disease with damages hardly controlled, herein, even a chemical at the level C determined by the tests of the effects can practically be used.
Ratio of the plants with the onset of the disease=(Number of plants with the onset of the disease/number of plants examined)*100
Frequency of the disease=[sigma(number of plants with the onset of the disease at each severity level*index of the onset of the disease)/(plants examined*4)]*100 […]

[2] = system: bacteria causing the soft rot (Erwinia carotovora); experiment: Inhibition test of growth of bacteria causing soft rot, Reference Test Example 1; format: cell-based; details: for formed colonies (growth state), grade: PSA medium, 25 degrees Celsius, 4 days
Procedure: (§1) An inhibition test of the growth of bacteria causing the soft rot was done, when a control agent was directly applied to the bacteria causing the soft rot. A given volume of each pesticide of cyazofamid (RANMAN 400SC [trade name] manufactured by Ishihara Sangyo Kaisha, Ltd.), amisulbrom (LEIMAY FLOWABLE [trade name], manufactured by Nissan Chemical Industries, Ltd.) and streptomycin (Mycin Wettable powder [trade name] manufactured by Hokko Chemical Industry Co., Ltd.) was added together with a suspension of the bacteria causing the soft rot (Erwinia carotovora) to a preliminarily dissolved PSA culture medium (55 degrees Celsius) for subsequent thorough agitation, which was then spread on a plate for culturing at 25 degrees Celsius for 4 days, to examine the growth state. Subsequently, the formed colonies were examined according to the following three grades. • +: at the same level as the level of non-treated lot.
(§2) Plus or minus: apparently less than the colonies of the non-treated lot. • −: almost no colonies observed.

[3] = system: bacteria causing the soft rot (Erwinia carotovora); experiment: Inhibition test of growth of bacteria causing soft rot, Reference Test Example 3; format: cell-based; details: for formed colonies (growth state), grade: PSA medium, 27 degrees Celsius, 2 days
Text: Inhibition test of growth of bacteria causing soft rot of potato An inhibition test of the growth of bacteria causing the soft rot was done, when a control agent was directly applied to the bacteria causing the soft rot. A given volume of each pesticide of triflumizol (TRIFUMIN WP [trade name] manufactured by Nippon Soda Co., Ltd.), chlorothalonil (Daconil 1000 [trade name], manufactured by Sumitomo Chemical Company, Limited) and streptomycin (Mycin Wettable powder [trade name] manufactured by Hokko Chemical Industry Co., Ltd.) was added together with a suspension of the bacteria causing the soft rot (Erwinia carotovora) to a preliminarily dissolved PSA culture medium (55 degrees Celsius) for subsequent thorough agitation, which was then spread on a plate for culturing at 27 degrees Celsius for 2 days, to examine the growth state. Subsequently, the formed colonies were examined according to the following three grades. • +: at the same level as the level of non-treated lot. Plus or minus: apparently less than the colonies of the non-treated lot. • −: almost no colonies observed.

[4] = system: bacteria causing the soft rot (Erwinia carotovora); experiment: Inhibition test of growth of bacteria causing soft rot, Reference Test Example 5; format: cell-based; details: for formed colonies (growth state), grade: PSA medium, 27 degrees Celsius, 2 days
Procedure: as §1, with “mepanipyrim (Flupika FL” for “cyazofamid (RANMAN 400SC”, “Nippon Soda Co.,” for “Ishihara Sangyo Kaisha, Ltd.), amisulbrom (LEIMAY FLOWABLE [trade name], manufactured by Nissan Chemical Industries,”, “27” for “25”, “2” for “4”
as §2

[5] = active ingredient concentration of 10 ppm

[H]/N=C(/N)N[C@H]1[C@H](O)[C@@H](O)[C@H](O[C@@H]2O[C@@H](C)[C@](O)(C=O)[C@H]2O[C@@H]2O[C@@H](CO)[C@H](O)[C@@H](O)[C@@H]2NC)[C@@H](N/C(N)=N\[H])[C@@H]1O [Streptomycin]
Determination of effect [1]: D (D: Poorly effective (20 or smaller disease control value))
formed colonies (growth state), grade ([2]; 1 ppm active ingredient): −, −
formed colonies (growth state), grade ([2]; 10 ppm active ingredient): −, −
direct antibacterial activity against Erwinia carotovora (in words) ([2]; active ingredient concentration of 1 ppm): exerted a direct antibacterial activity
formed colonies (growth state), grade ([3]; 1 ppm active ingredient): +, ±
formed colonies (growth state), grade ([3]; 10 ppm active ingredient): −, −
direct antibacterial activity against Erwinia carotovora (in words) [3, 5]: exerted a direct antibacterial activity
formed colonies (growth state), grade ([4]; 1 ppm active ingredient): +, ±
formed colonies (growth state), grade ([4]; 10 ppm active ingredient): −, −
direct antibacterial activity against Erwinia carotovora (in words) [4, 5]: exerted a direct antibacterial activity

— patent US20130123287A1, “CONTROL AGENT FOR SOFT ROT AND CONTROL METHOD FOR THE SAME” (ISHIHARA SANGYO KAISHA, LTD., priority 2010, published 2013)
